Measured values as given in patent publication US12383544B2, “Methods for the treatment of polycystic kidney disease” (Galapagos NV, priority 2019, dated 2025).

Columns and labels:
wild type human CFTR = target: T1, wild type human CFTR (Homo sapiens, UniProt P13569); assay: Yellow Fluorescent Protein (YFP) halide assay in wild type CFTR (HEK293 cells); assay type: cell-based; details: HEK293 cells transfected with wild type human CFTR; 24 h incubation; 10 μM forskolin; read-out: EC50 of inhibition of WT CFTR
T1 construct: expressed in transfected cells; host or cells: HEK293
T1 sequence (P13569 whole entry): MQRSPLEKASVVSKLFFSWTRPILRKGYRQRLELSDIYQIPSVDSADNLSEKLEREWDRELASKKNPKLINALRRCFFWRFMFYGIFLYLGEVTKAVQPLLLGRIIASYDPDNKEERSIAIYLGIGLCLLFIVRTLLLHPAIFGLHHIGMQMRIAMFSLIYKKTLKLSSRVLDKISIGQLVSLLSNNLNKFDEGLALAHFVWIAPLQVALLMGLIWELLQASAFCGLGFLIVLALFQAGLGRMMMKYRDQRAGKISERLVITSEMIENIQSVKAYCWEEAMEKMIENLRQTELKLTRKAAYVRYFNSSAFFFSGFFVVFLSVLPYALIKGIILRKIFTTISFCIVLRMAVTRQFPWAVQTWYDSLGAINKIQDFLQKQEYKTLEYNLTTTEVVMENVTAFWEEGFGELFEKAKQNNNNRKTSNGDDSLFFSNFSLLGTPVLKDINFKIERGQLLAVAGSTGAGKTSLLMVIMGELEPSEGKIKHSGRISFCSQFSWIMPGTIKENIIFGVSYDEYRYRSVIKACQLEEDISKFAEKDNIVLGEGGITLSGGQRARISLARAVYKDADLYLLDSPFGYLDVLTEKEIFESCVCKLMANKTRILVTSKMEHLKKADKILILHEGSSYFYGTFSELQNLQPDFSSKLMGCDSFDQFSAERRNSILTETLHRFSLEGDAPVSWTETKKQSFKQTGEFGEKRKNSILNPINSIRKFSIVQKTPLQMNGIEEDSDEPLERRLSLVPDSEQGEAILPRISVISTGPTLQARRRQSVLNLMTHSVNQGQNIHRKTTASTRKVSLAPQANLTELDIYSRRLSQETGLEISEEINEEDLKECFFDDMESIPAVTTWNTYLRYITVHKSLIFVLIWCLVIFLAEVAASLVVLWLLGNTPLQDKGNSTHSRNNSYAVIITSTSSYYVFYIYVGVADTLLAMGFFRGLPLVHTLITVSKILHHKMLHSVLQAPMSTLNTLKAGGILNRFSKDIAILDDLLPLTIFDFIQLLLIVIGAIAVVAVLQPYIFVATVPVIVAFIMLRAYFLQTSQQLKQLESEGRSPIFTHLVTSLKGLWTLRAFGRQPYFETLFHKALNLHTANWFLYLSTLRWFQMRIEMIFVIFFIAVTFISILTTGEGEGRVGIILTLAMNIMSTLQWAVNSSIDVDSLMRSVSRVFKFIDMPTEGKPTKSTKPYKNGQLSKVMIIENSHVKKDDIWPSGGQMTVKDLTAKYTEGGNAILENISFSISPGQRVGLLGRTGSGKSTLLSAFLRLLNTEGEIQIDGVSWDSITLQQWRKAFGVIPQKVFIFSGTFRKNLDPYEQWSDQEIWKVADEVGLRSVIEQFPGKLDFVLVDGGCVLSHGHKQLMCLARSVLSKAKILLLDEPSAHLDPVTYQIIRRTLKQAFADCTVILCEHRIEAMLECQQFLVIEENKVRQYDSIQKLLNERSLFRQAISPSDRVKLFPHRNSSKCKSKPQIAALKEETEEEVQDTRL
Protocol: To evaluate the ability of a test compound to inhibit wild type CFTR, a YFP halide assay using HEK293 cells transfected with wild type human CFTR was developed. (Galietta, Jayaraman, and Verkman 2001) Cells were incubated during 24 h with a dose range of test compound and the resulting wild type CFTR activity was plotted to obtain the EC50.
Test compounds were also added together with forskolin to wild type CFTR expressing cells in order to fully active the available CFTR at the plasma membrane and determine accurately the inhibition of the channel activity.
HEK293 cells were transfected with 10 to 80 ng of wild type CFTR and 20 ng of plasmid encoding YFP (H148Q/I152L/F47L) using jetPEI (Polyplus transfection). Directly after transfection, cells were seeded in black 96-well plates coated with Poly-D-lysine at a density of 70,000 cells per well. The next day, cells were treated with corrector(s) for 24 h. After this incubation period, cells were washed twice with DPBS with Ca^2+ and Mg^2+. Subsequently, cells were treated with 10 μM forskolin and the desired concentration of potentiator in a volume of 40 μl and incubated at room temperature for 10 min, a time point optimized in previous experiments resulting in a good window (positive control/negative control >2) and signal to background ratio. YFP fluorescence was measured using an EnVision plate reader (PerkinElmer). […]

wt CFTR (CFTR channel) = target: T2, wt CFTR (CFTR channel) (Homo sapiens, UniProt P13569); assay: TECC assay on normal primary human bronchial epithelial (HBE) cells; assay type: cell-based; details: 0.3 μM forskolin
T2 construct: evaluate compounds on normal primary bronchial epithelial cells (HBE cells); endogenous in cells; host or cells: normal primary human bronchial epithelial (HBE) cells from donor lungs
T2 sequence (P13569 whole entry): as above
Protocol: The TECC assay is used to evaluate compounds on normal primary bronchial epithelial cells (HBE cells), which are closer to physiological conditions
Bronchial epithelial cells isolated from transplanted lungs from normal (wt CFTR) were isolated from lungs obtained from donors undergoing a planned transplantation. These primary cells were cultured directly on type IV collagen-coated polycarbonate Transwell supports with a diameter of 6.5 mm and pore size of 0.4 μm (Costar, #3397) for 18 to 25 days in air liquid (ali) interface essentially as previously described for TECC. (Fulcher et al. 2005)
Trans-epithelial clamp circuit (TECC) recordings were performed using the TECC instrument developed and sold by EP Design (Bertem, Belgium). During the recording, the epithelial cells were bathed in a NaCl-Ringer solution (120 mM NaCl, 20 mM HEPES, 1.2 mM CaCl2, 1.2 mM MgCl2, 0.8 mM KH2PO4, 0.8 mM K2HPO4, 5 mM glucose, pH 7.4) on both the basolateral (640 μl) and the apical side (160 μl) and kept at 37° C. Apical amiloride was used to inhibit the endogenous ENaC currents (100 μM) while forskolin (0.3 μM) was applied on both the apical and basolateral sides to stimulate CFTR. All triggers and compounds used during the experiment were first dissolved in DMSO to a 1000× concentrated solution, just prior to treatment a 10× stock was prepared in the NaCl-Ringer solution which was used for addition of the correct concentration of trigger and or compound during the experiment. Cells were treated with test compounds for 24 hours before recording and this treatment was repeated in the TECC buffer prior to the electrophysiological recording. Measurements were done during a 20-min timeframe with recordings every 2 min. The transepithelial potential (PD) and transepithelial resistance (Rt) were measured in an open circuit and transformed to Ieq using Ohm's law. The maximal increase in Ieq (Δ Ieq) was used as a measure for the increased CFTR activity.

[1] = tested on: PKD1^flox/flox / ubiquitous CreER^T2 mice; assay: In vivo ADPKD mice model in combination with tolvaptan (meta-analysis of two experiments)
Text: The ADPKD mice model is based on PKD1^flox/flox (with lox sites flanking exons 2-4)/ubiquitous CreER^T2 mice in which the PKD1 gene is ubiquitously knock-out by the activation of the Cre recombinase by treatment of the mice with Tamoxifen at day 12 after birth (in nursing female). Homozygotous knock-out of the PKD1 gene leads to the rapid formation of kidney cysts mimicking to a certain extend the development of ADPKD disease in human.
Before experimentations, mouse colonies of PKD1^flox/flox (with lox sites flanking exons 2-4)/ubiquitous CreER^T2 were maintained at Charles River Laboratories (France). To induce Cre recombinase activity, tamoxifen (60 mg/kg in sunflower oil) was delivered in nursing females by intraperitoneal injection at postnatal day 12. Subsequently, tamoxifen-containing milk was administered to pups. Treatments started at 4 weeks of age for 11 weeks. Tolvaptan was incorporated in diet (0.1%) and given alone or in combination with Cpd 2, administered at 250 mg/kg, q. d., p.o. At initiation of treatment and on a regular basis during the study, serum was collected to determine levels of blood urea nitrogen (BUN) on a Spotchem bioanalyzer. At necropsy, kidneys were collected and weighed to determine kidney weight/body weight ratio.
Two independent experiments were conducted.
A two-way ANOVA with Dunnett post-hoc multiple comparisons of all experimental groups versus the diseased group has been applied to the log Fold Change (log FC) of BUN ([…]) at sacrifice (Week 15) versus BUN at Week 4 as function of Group and Study.
The mean fold change at week 15 (sacrifice) vs week 4 (treatment initiation) is calculated, assuming a 100% change for the diseased group (untreated).

Row | EC50 (wild type human CFTR) | pIC50 (wt CFTR (CFTR channel)) | IC50 (wt CFTR (CFTR channel); read-out: IC50 value (resulting from pIC50) (converted)) | Structure (SMILES) | BUN Mean fold changes on week 15 vs week 4 ([1]; Cpd 2 250 mg/kg q.d. p.o., Tolvaptan 0.1% in diet, treatment from 4 weeks of age for 11 weeks) | BUN fold change vs the diseased group (in words) ([1]; administered from week 4 to week 15) | BUN % of Mean Diseased fold change ([1]; week 15 vs week 4, diseased group = 100, Cpd 2 250 mg/kg q.d. p.o., Tolvaptan 0.1% in diet)
1 | 102 nM | 7.50 | 32 nM | COC1CCN(C2CCN(c3cc(C(=O)NS(=O)(=O)N(C)C)nc4c3c(C3CCC3)nn4-c3ccc(F)cc3)CC2)CC1 [Cpd 2] |  |  | 
2 |  |  |  | Cc1ccccc1C(=O)Nc1ccc(C(=O)N2CCCC(O)c3cc(Cl)ccc32)c(C)c1 (stereo not drawn) [Tolvaptan, tolvaptan] | 1.889 | did not result in a significant fold change | 80.7%
